Tested on: rumen fluid
Experiment: Rumen simulation continuous culture system (RSCC): methane production, pH, digestibility
Assay type: cell-based
Settings: vs control group
Description: 0.12 mL of a micromineral solution was added to 250 mL of distilled water in an 2 L of Erlenmeyer flask and stirred. Another 250 mL of distilled water was added, and then stirred for 20 minutes. Then, 250 mL of an in vitro buffer solution was added and stirred for 10 minutes. Then, 250 mL of a macromineral solution was added and stirred for 15 minutes. Then, 1.25 mL of a resazurin solution was added to the mixture and stirred. Then, the flask was sealed with aluminum foil and heated while maintaining an anaerobic condition by bubbling CO2 gas in a Hungate anaerobic culture tube. When the solution started boiling, the solution was heated for 10 more minutes and then cooled down. 50 mL of a reduction solution was added to the cooled solution to obtain a buffer.
A sampled rumen fluid was first filtered through eight-layer gauze and then through glass wool. The filtered rumen fluid was maintained in an anaerobic condition by CO2 bubbling. While maintaining the anaerobic condition by CO2 bubbling, the buffer solution prepared in 1) above was mixed with the rumen fluid (250 mL of the rumen fluid, 600 mL of the buffer solution).
10 g of a substrate was added to a fermenter. The buffer solution prepared in 1) was added into a buffer bag while maintaining the anaerobic condition. A Tedlar bag filled with CO2 gas was connected to the buffer bag, and a tube connected to the buffer bag was connected to a buffer inlet port of the fermenter lid. Then a tube connected to a gas collecting bag was connected to a gas collecting port of the fermenter lid (a tube for gas was used). A pH probe and a temperature probe were placed deep enough to reach the culture medium while not touching the impellers. In the meantime, a feed inlet tube was placed deep enough to reach the culture medium through the feeding port of the fermenter lid. The fermenter lid was then connected to the fermenter and an anaerobic condition inside the fermenter was maintained by using vacuum grease and Teflon tape. CO2 gas was introduced into the fermenter through the gas collecting port for about 10 minutes (making the inside of the fermenter anaerobic, continuously introducing CO2 gas until the initiation of cultivation). All joint connections were sealed with vacuum grease and Teflon tape. Once all devices were installed, a peristaltic pump was activated and the buffer solution was introduced into the fermenter. The anaerobic culture medium was introduced into the fermenter until it overflowed, and then the CO2 gas introduction into the fermenter was discontinued and all inlet ports were sealed. The fermenter was then connected to a circulator, and cultivation started at 39° C. with a stirring speed between 99 rpm and 102 rpm. The pH of the culture medium of the fermenter was between 6.8 and 7.1, and a temperature was maintained at between 39° C. and 40° C. A turnover rate of the culture medium was stabilized at 0.042 h^−1 while a turnover rate of the substrate was stabilized at 0.017 h^−1.
Below is an experiment on reduction of methane production conducted in accordance with the above operation method using the RSCC system of 3) of Preparation Example. A feed additive for reducing methane was added with the substrate when the substrate was added.
The RSCC system was operated for five days of adjustment, and then total gas production, methane production, and pH values of the control group were measured for three days. After the measurements of the control group were completed, DADS was added at ratios of 0.1 wt %, 0.2 wt %, and 0.4 wt % per 10 g of a substrate, and then total gas production, methane production, and pH values were measured at the same time for another three days. The methane reduction rate was measured after having an adjustment period with a newly sampled rumen fluid every time one additive examines.

[1] = additive 0.1 wt % per 10 g of substrate
[2] = additive 0.5 wt % per 10 g of substrate

Row | Compound | Methane Reduction (%) [1] [%] | Methane Reduction (%) (additive 0.2 wt % per 10 g of substrate) | Methane Reduction (%) [2] [%] | Methane Reduction (%) (additive 0.35 wt % per 10 g of substrate) | Methane Reduction (%) (additive 1.0 wt % per 10 g of substrate)
1 | COc1ccc2cc3[n+](cc2c1OC)CCc1cc2c(cc1-3)OCO2 [Berberine, 5,6-dihydro-9,10-dimethoxybenzo[g]-1,3-benzodioxolo[5,6-a]quinolizinium] | 6.7 | 12.4 | 45.5 |  | 
2 | ((2R)-2-amino-3-[(S)-prop-2-enylsulfinyl] propanoic acid [Alliin] |  |  | 21.9 |  | 
3 | C=CCSSCC=C [DADS, 4,5-dithia-1,7-octadiene diallyldisulfide] | 30.5 |  |  |  | 
4 | O=[N+]([O-])O [Nitrate] |  |  | 31.0 | 14.0 | 8.1

— patent publication US10440975B2, “Feed additive composition for reducing methane gas produced by ruminant animals” (CJ CHEILJEDANG CORPORATION, priority 2014, dated 2019)
